The text below walks through data of ChEMBL document CHEMBL1833918, “Design and synthesis of potent, orally-active DGAT-1 inhibitors containing a dioxino[2,3-d]pyrimidine core” (Bioorg Med Chem Lett, 2011).

The nature of data set [1]: Clearance in rat. It is filed as ADME, organism-based. As to conditions: in vivo.
For data set [2], the species on record is Mus musculus. As to conditions: C57BL6J, 1 to 3 mg/kg.
Description: Inhibition of triglyceride synthesis in a lipid challenged C57BL6J mouse at 1 to 3 mg/kg, po coadministered with bolus of lipid
Data set [3] relates to Salmonella typhimurium. Put plainly: Genotoxicity in Salmonella Typhimurium by Ames test. The format is toxicity, organism-based. As to conditions: salmonella enterica subsp. enterica serovar typhimurium.
Data set [4] is described as follows: Lipophilicity, log D of the compound at pH 7.4. The format is physicochemical. As to conditions: buffer.
Data set [5] relates to Liver microsomes. Put plainly: Stability of the compound in human liver microsomes at 10 uM after 30 mins in presence of glutathione ethyl ester. The format is ADME, Microsome. As to conditions: 0.5 h.
Data set [6] addresses hERG (KCNH2) (Homo sapiens, UniProt Q12809). Put plainly: Inhibition of human ERG at 30 uM.
For data set [7], the system named is Rattus norvegicus. Nature of the data set: Toxicity in rat assessed as clinical signs up to 500 mg/kg. The format is organism-based. Also noted: dose 500 mg/kg. As to conditions: in vivo.
Data set [8] is described as follows: Permeability of the compound. It is filed as ADME. As to conditions: not told; read-out: permeability.
Data set [9] has as its system Rattus norvegicus. Nature of the data set: Toxicity in rat assessed as hematological signs up to 500 mg/kg. The following applies: in vivo. The format is organism-based. The arrangement: dose 500 mg/kg.
Data set [10] has as its system Rattus norvegicus. Nature of the data set: Toxicity in rat assessed as histopathological signs up to 500 mg/kg. The format is organism-based. Also noted: dose 500 mg/kg. As to conditions: in vivo.
The test system of data set [11] is Mus musculus. Put plainly: Inhibition of triglyceride synthesis in a lipid challenged C57BL6J mouse administered orally. The following applies: po. It is filed as functional.

SMILES strings stand for the structures. The source made the active and inactive calls. The calls are words filed in the database; no cut-off is given here.

Chain of hERG (KCNH2) (Q12809 whole entry): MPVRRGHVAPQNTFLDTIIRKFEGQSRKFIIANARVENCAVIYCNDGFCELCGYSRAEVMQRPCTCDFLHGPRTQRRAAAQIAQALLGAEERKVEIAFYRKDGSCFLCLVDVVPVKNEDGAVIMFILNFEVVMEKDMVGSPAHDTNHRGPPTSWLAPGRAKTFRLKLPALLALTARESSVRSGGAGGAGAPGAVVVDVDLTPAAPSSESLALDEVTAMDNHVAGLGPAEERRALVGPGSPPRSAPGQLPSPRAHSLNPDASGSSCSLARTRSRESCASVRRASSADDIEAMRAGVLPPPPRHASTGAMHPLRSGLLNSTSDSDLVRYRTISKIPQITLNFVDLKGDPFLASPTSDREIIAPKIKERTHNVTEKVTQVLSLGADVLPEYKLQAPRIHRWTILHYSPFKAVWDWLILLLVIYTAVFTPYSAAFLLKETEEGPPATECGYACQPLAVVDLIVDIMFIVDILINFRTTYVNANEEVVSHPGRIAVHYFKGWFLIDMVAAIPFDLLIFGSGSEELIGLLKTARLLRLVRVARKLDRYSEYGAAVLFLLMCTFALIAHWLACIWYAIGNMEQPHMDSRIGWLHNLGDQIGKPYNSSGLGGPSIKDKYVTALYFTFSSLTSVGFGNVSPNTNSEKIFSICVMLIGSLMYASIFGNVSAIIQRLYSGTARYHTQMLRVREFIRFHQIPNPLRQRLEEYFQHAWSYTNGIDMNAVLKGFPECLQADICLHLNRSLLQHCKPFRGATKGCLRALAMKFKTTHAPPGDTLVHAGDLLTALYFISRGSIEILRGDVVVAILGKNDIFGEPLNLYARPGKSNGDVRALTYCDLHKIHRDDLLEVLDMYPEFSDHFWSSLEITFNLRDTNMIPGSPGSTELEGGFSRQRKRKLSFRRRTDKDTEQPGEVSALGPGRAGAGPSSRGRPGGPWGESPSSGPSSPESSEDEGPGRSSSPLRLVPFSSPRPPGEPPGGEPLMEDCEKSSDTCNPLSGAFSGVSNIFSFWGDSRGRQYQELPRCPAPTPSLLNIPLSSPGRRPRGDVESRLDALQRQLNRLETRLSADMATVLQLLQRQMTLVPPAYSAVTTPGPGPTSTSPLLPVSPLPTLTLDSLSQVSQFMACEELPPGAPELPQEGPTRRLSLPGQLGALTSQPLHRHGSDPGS

For `Nc1ncnc2c1O[C@@H](c1ccc([C@H]3CC[C@H](CC(=O)O)CC3)cc1)CO2`, in data set [1], the clearance was 2 mL/min/kg. Moreover, the inhibition entry in data set [2] was “Active”. The Activity entry in [3], in [7], in [9] and in [10] was “Non-toxic” in each case. The logD in data set [4] stood at 0.74. In data set [5], the Stability entry is “Unstable”. Further, the inhibition at 30 µM in data set [6] turned out to be 8%. Moreover, the Papp in data set [8] worked out at 7.7 ×10⁻⁶ cm/s.
For `CC1(C)Oc2ncnc(N)c2N=C1c1ccc([C@H]2CC[C@H](CC(=O)O)CC2)cc1`, the median effective dose (ED50) in [11] came to 0.3 mg/kg.
Regarding `Nc1ncnc2c1C(=O)N(c1ccc([C@H]3CC[C@H](CC(=O)O)CC3)cc1)CCO2` [PF-04620110], in [4], the logD was -0.15.
